Laboratory results: patent US7265131B2, “Isoquinolinone derivatives and their use as therapeutic agents” (Exelixis, Inc., priority 2002, dated 2007)
pKi: −log10 of the molar value.

Biological target: T1, LXRβ (Homo sapiens, UniProt P55055)
T1 construct: were made by cloning the appropriate full-length cDNAs into the pBacPakhis1 vector; poly-His (pBacPakhis1) (N); made in house; host or cells: Sf9 insect cells (baculovirus), crude lysate
Experiment: Scintillation proximity assay (SPA), competition with 3H-24,25-epoxycholesterol
Format: binding
Conditions: average Ki with respect to LXR β, read-out: Ki(b)
Method: The SPA assay measures the radioactive signal generated by the binding of ^3H-24,25-epoxycholesterol to LXRα or LXRβ. The basis of the assay is the use of SPA beads containing a scintillant, such that when binding to the receptor brings the labeled ligand into proximity with the bead, the energy from the label stimulates the scintillant to emit light. The light is measured using a standard microplate scintillation reader. The ability of a ligand to bind to a receptor can be measured by assessing the degree to which the compound can compete off a radiolabelled ligand with known affinity for the receptor.
1. Label: ^3H-24,25-epoxy-cholesterol (Amersham)
3. LXRβ lysate: Baculovirus expressed LXRβ/RXR heterodimer with RXR having a 6-HIS tag produced as a crude lysate
4. SPA beads: Ysi copper His-tag SPA beads (Amersham)
Baculovirus expression plasmids for human RXR α (accession No NM_002957), LXR a (accession No U22662), LXR β (accession No U07132) were made by cloning the appropriate full-length cDNAs into the pBacPakhis1 vector (Clontech, CA) following standard procedures. Insertion of the cDNAs into the pBAcPakhis1 vector polylinker created an in frame fusion to the cDNA to an N-terminal poly-His tag present in pBacPakhis1. Correct cloning was confirmed by restriction mapping, and/or sequencing.
Cell lysates were prepared by infecting healthy, Sf9 insect cells at a density of approximately 1.25×10^6/ml at 27° C., in a total volume of 500 mL per 1 L sized spinner flasks, cultured under standard conditions. To prepare LXRα lysate, insect cells were co-transfected with the LXR α expression cassette at an M.O.I of 0.5 to 0.8 and with the RXR expression cassette at a M.O.I. of approximately 1.6. To prepare LXRβ lysate, insect cells were co-transfected with the LXR β expression cassette at an M.O.I of approximately 1.6 and with the RXR expression cassette at a M.O.I. of approximately 1.6. In both cases cells were incubated for 48 hours at 27° C. with constant shaking prior to harvesting.
After incubation, cells were harvested by centrifugation and pelleted. Cell pellets were resuspended in two volumes of ice-cold freshly prepared extraction buffer (20 mM Tris pH 8.0, 10 mM Imidazole, 400 mM NaCl, containing one EDTA free protease inhibitor tablet (Roche Catalog No: 1836170) per 10 ml of extraction buffer).
Cells were homogenized slowly on ice using a Douncer to achieve 80-90% cell lysis. The homogenate was centrifuged in a pre-chilled rotor (Ti50 or Ti70, or equivalent) at 45,000 rpm for 30 minutes at 4° C. Aliquots of the supernatant were frozen on dry ice and stored frozen at −80° C. until quantification and quality control. Aliquots of the lysates were tested in the SPA assay to ensure lot to lot consistency, and via SDS-PAGE analysis after purification using Ni-NTA Resin (Qiagen) and adjusted for protein concentration and expression level prior to use in screening assays.
[^3H] 24,25 Epoxycholesterol (EC) solution: For a single 384-well plate (or 400 wells), 21 μL of [^3H] EC (specific activity 76.5 Ci/mmol, concentration 3.2 mCi/mL) was added to 4.4 mL of 2×SPA buffer to provide for a final concentration of 200 nM. For each additional 384-well plate, an additional 19.1 μL of [^3H] EC was added to 4.0 mL of additional 2×SPA buffer. The final concentration of [^3H] EC in the well was 50 nM.
LXRβ lysate (prepared as above) was diluted with protein lysate dilution buffer. 1400 μL of diluted LXRβ lysate was prepared per 384-well plate, ([…]) and 1120 μL of diluted LXRβ lysate was prepared for each additional 384-well plate.
SPA bead solution: For a 384-well plate (or 400 wells), 3.75 mL of 2×SPA buffer w/o EDTA, 2.25 mL of H2O, and 1.5 mL of Ysi His-tag SPA beads (vortex well before taking) were mixed together. For each additional 384-well plate, an additional 3.5 mL of 2×SPA buffer w/o EDTA, 2.1 mL of H2O, and 1.4 mL of Ysi His-tag SPA beads were mixed together. […]

T1 sequence (P19793 whole entry): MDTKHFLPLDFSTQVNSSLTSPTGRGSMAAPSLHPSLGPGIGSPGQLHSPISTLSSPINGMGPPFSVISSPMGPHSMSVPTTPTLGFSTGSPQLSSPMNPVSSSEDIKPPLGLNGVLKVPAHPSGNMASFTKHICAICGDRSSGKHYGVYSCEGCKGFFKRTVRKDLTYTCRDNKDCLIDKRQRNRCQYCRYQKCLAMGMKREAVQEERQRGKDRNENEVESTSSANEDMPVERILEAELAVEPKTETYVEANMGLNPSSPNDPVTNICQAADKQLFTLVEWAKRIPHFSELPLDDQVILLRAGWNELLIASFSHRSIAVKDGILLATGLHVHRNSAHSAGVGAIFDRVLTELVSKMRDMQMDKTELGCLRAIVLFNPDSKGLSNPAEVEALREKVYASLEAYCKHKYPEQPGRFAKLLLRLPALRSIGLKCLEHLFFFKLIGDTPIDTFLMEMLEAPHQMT
T1 sequence (P55055 whole entry): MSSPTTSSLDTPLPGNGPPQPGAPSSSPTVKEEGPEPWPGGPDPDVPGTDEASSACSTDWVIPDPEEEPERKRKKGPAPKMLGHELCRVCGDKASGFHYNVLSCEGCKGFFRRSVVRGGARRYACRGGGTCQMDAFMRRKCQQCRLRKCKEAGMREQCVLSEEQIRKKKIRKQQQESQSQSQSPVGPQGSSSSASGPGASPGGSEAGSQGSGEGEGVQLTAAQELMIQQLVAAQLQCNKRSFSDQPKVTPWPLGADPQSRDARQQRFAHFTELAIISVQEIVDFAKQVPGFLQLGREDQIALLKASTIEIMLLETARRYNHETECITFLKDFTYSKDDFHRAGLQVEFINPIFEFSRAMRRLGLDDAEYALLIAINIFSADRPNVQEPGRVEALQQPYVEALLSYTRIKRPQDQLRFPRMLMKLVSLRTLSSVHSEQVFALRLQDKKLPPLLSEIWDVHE

First: Cc1ccc(Cn2c(C#CC(C)(C)O)cc3ccccc3c2=O)c(C)c1 [2-(2,4-dimethylbenzyl)-3-(3-hydroxy-3-methylbut-1-ynyl)-2H-isoquinolin-1-one]
Second: Cc1ccc(Cn2c(-c3ccsc3)cc3ccccc3c2=O)c(C)c1 [2-(2,4-dimethylbenzyl)-3-thiophen-3-yl-2H-isoquinolin-1-one]
The pKi of the first is lower: < 6.30 for the first, 6.30 to 6.82 for the second. The second binds more tightly here.

`Cc1ccc(Cn2c(-c3ccc(Oc4ccccc4)cc3)cc3ccccc3c2=O)c(C)c1` [2-(2,4-dimethylbenzyl)-3-(4-phenoxyphenyl)-2H-isoquinolin-1-one] and `Cc1ccc(Cn2c(-c3ccc(Oc4ccccc4)cc3)cc3cccc(C)c3c2=O)cc1` [8-methyl-2-(4-methylbenzyl)-3-(4-phenoxyphenyl)-2H-isoquinolin-1-one] fall in the same range of pKi: 6.82 to 8.00 for the first, 6.82 to 8.00 for the second.

First: Cc1cccc(-c2cc3ccccc3c(=O)n2Cc2ccc(C)cc2C)c1 [2-(2,4-dimethylbenzyl)-3-m-tolyl-2H-isoquinolin-1-one]
Second: Cc1cccc(-c2cc3ccccc3c(=O)n2Cc2ccccc2)c1 [2-benzyl-3-m-tolyl-2H-isoquinolin-1-one]
The pKi of the first is higher: 6.82 to 8.00 for the first, < 6.30 for the second. The first binds more tightly here.

`O=c1c2c(Cl)cccc2cc(-c2cc(-c3cc(C(F)(F)F)cc(C(F)(F)F)c3)co2)n1Cc1ccc(F)cc1F` [3-[4-(3,5-bis-trifluoromethylphenyl)furan-2-yl]-8-chloro-2-(2,4-difluorobenzyl)-2H-isoquinolin-1-one] and `Nc1ccc(-c2coc(-c3cc4cccc(Cl)c4c(=O)n3Cc3ccc(F)cc3F)c2)cc1C(F)(F)F` [3-[4-(4-amino-3-trifluoromethylphenyl)furan-2-yl]-8-chloro-2-(2,4-difluorobenzyl)-2H-isoquinolin-1-one] fall in the same range of pKi: 6.82 to 8.00 for the first, 6.82 to 8.00 for the second.

`O=c1c2c(Cl)cccc2cc(-c2ccc(Oc3ccccc3)cc2)n1Cc1ccc(F)cc1F` [8-chloro-2-(2,4-difluorobenzyl)-3-(4-phenoxyphenyl)-2H-isoquinolin-1-one] and `O=c1c2c(Cl)cccc2cc(-c2ccc(Oc3cnccn3)cc2)n1Cc1ccc(F)cc1F` [8-chloro-2-(2,4-difluorobenzyl)-3-[4-(pyrazin-2-yloxy)phenyl]-2H-isoquinolin-1-one] fall in the same range of pKi: 6.82 to 8.00 for the first, 6.82 to 8.00 for the second.

First: CS(=O)(=O)c1ccc(-c2ccc(-c3cc4cccc(Cl)c4c(=O)n3Cc3ccc(F)cc3F)s2)cc1 [8-chloro-2-(2,4-difluorobenzyl)-3-[5-(4-methanesulfonylphenyl)thiophen-2-yl]-2H-isoquinolin-1-one]
Second: CCOc1ccc(-c2csc(-c3cc4cccc(Cl)c4c(=O)n3Cc3ccc(F)cc3F)c2)cc1Cl [8-chloro-3-[4-(3-chloro-4-ethoxyphenyl)thiophen-2-yl]-2-(2,4-difluorobenzyl)-2H-isoquinolin-1-one]
The pKi of the first is higher: 6.82 to 8.00 for the first, 6.30 to 6.82 for the second.

`O=c1c2c(Cl)cccc2cc(-c2ccc(Oc3ccccc3)cc2)n1CC1CCCCC1` [8-chloro-2-cyclohexylmethyl-3-(4-phenoxyphenyl)-2H-isoquinolin-1-one] and `O=c1c2c(Cl)cccc2cc(-c2ccc(Oc3ccccc3)cc2)n1Cc1cccs1` [8-chloro-3-(4-phenoxyphenyl)-2-thiophen-2-ylmethyl-2H-isoquinolin-1-one] fall in the same range of pKi: 6.82 to 8.00 for the first, 6.82 to 8.00 for the second.
